In ChEMBL document CHEMBL4888484, “Replenishing the malaria drug discovery pipeline: Screening and hit evaluation of the MMV Hit Generation Library 1 (HGL1) against asexual blood stage Plasmodium falciparum ,using a nano luciferase reporter read-out” (2022):

Key:
Plasmodium falciparum [1] = experiment: Hit confirmation in dose-response curve in NF54 nanoGlo assay, at 72h; assay type: functional, organism-based, Erythrocyte; design: timepoint 72 hour; details: Plasmodium falciparum, NF54, Erythrocyte, 72 h
Plasmodium falciparum [2] = experiment: Hit confirmation in dose-response curve in NF54 pLDH assay, at 72h; assay type: functional, organism-based; design: timepoint 72 hour; details: NF54, Erythrocyte
Plasmodium falciparum [3] = experiment: Hit confirmation in dose-response curve in Dd2 pLDH assay, at 72h; assay type: functional, organism-based; design: timepoint 72 hour; details: Dd2, Erythrocyte
Plasmodium falciparum [4] = experiment: Hit confirmation in dose-response curve in NF54 nanoGlo assay, at 12h; assay type: functional, organism-based, Erythrocyte; design: timepoint 12 hour; details: Plasmodium falciparum, NF54, Erythrocyte, 12 h
[5] = Hit confirmation in dose-response curve in HepG2 cytotoxicity assay, at 72h; assay type: toxicity, cell-based; design: timepoint 72 hour; details: human, HepG2 cells

| Compound | IC50 (Plasmodium falciparum [1]) [µM] | IC50 (Plasmodium falciparum [2]) [µM] | IC50 (Plasmodium falciparum [3]) [µM] | IC50 (Plasmodium falciparum [4]) [µM] | IC50 at 72 h [5] [µM] |
| --- | --- | --- | --- | --- | --- |
| Oc1ccc(-c2nnc(-c3ccc(O)cc3)nn2)cc1 | 1.95 | 5.62 | 3.09 | 5.13 | > 10 |
| Oc1ccccc1CNc1cccc2cccnc12 | 4.37 | > 10 | 8.13 | 8.51 | > 10 |
| Fc1ccccc1N1CCN(C2CCN(Cc3c[nH]c4ccccc34)CC2)CC1 | 1.82 | 4.07 | 3.24 | > 10 | > 10 |
| COc1cc(OC)cc(C(=O)Nc2ccc3nc(N4CCC(C)CC4)cc(C)c3c2)c1 | 3.16 | > 10 | 5.01 | 6.76 | > 10 |
| C=Cn1cc[n+](CC(=O)c2ccc(-c3ccccc3)cc2)c1 | 3.09 | 3.47 | 2.63 | > 10 | > 10 |
| CNc1nc(NCc2ccccc2)nc2ccccc12 | 1.78 | 2.63 | 1.07 | 10.2 | > 10 |
| Cc1cc(N2CC(OCc3ccccc3)C2)nc(Nc2cccc(O)c2)n1 | 1.38 | 2.63 | 1.45 | 2.88 | > 10 |
| O=C(Nc1cccnc1)c1ccc(-c2ccc(Cl)c(Cl)c2)o1 | 2.24 | 8.32 | 7.94 | 1.66 | > 10 |
| C[C@H]1Cc2cc(C(=O)NCc3nc(C(F)(F)F)n[nH]3)ccc2O1 | 4.27 | > 10 | > 10 | 1.45 | > 10 |
| Cc1cc[n+]2c(-c3ccccc3)cc(-c3ccccc3)nc2c1 | 1.51 | 2.57 | 1.78 | > 10 | > 10 |
| COc1nc(NC[C@H]2CCCN2C(C)C)ncc1F | 1.32 | 1.7 | > 10 | > 10 | > 10 |
| Cc1cc(C)c(NC(=O)OCc2cccc3cccnc23)c(C)c1 | 1.05 | 2.82 | 2.29 | > 10 | > 10 |
| Cc1cc(OCCOCCNCCN)cc(C(C)C)c1 | 4.68 | > 10 | 10.7 | > 10 | > 10 |
| COc1nc(-c2cccc(C(=O)N3C[C@@H]4CC[C@H](C3)C(=O)N4)c2)ncc1F | 0.479 | 0.813 | > 10 | > 10 | > 10 |
| CN1CCC(n2ncc3[nH]c(-c4ccc(C(F)(F)F)cc4)nc32)CC1 | 0.692 | 1.51 | 1.2 | 1.32 | > 10 |
| COc1ccc(CC(=O)N2N=C(C)C[C@]2(O)c2cccnc2)cc1 | 2.95 | > 10 | > 10 | 1.02 | > 10 |
| O=C1NC(=O)c2ccc3c4c(ccc1c24)C(=O)N(c1ccccc1)C3=O | 6.03 | 3.55 | 1.66 | > 10 | > 10 |
| COc1cccc(N2C(=O)C[C@]3(CC3(c3ccccc3)c3ccccc3)C2=O)c1 | 4.07 | > 10 | > 10 | 0.832 | > 10 |
| COc1ccc(-c2c(-c3cccc(OC)c3)[nH]c3c2c(=O)[nH]c(=O)n3C)cc1 | > 10 | > 10 | > 10 | > 10 | > 10 |
| CCCc1cc(-c2nc(-c3ccc(-n4nc(C)cc4N)cc3)no2)n(C)n1 | 0.871 | 1.82 | 1.86 | > 10 | > 10 |
| O=C(Nc1nc2cccc(Cl)c2o1)c1cccc(F)c1 | 1.32 | 2 | 2.51 | > 10 | > 10 |
| COc1ccc([C@H](NC(=O)CCc2ccccc2)c2c(O)ccc3ccccc23)cc1 | 2.45 | 9.33 | 5.62 | 1.48 | > 10 |
| CCCn1ccnc1-c1cn(Cc2cc3ccccc3[nH]2)nn1 | 2.82 | 5.37 | 4.79 | > 10 | > 10 |
| NCc1cccc(C(=O)N2CCc3cc4ccc3[C@@H]2c2cccc(c2)OCCCNC(=O)c2cc(ccc2O)O4)c1 | 1.51 | 6.92 | 3.72 | 3.72 | > 10 |
| CC(=O)c1cc(-c2cc(O)cc(CC[C@H]3CCCCN3)c2)ccc1O | 1.51 | 2.04 | 1.55 | 2.95 | > 10 |
| O=C(Nc1ccc(C2(c3ccc(NC(=O)c4ccc(F)cc4)cc3)c3ccccc3C(=O)c3ccccc32)cc1)c1ccc(F)cc1 | 2.04 | 5.89 | 8.13 | 5.01 | > 10 |

| Compound | IC50 (Plasmodium falciparum [1]) [µM] | IC50 (Plasmodium falciparum [2]) [µM] | IC50 (Plasmodium falciparum [3]) [µM] | IC50 (Plasmodium falciparum [4]) [µM] | IC50 at 72 h [5] [µM] |
| --- | --- | --- | --- | --- | --- |
| CN1CCC(N2CCN(Cc3ccc4cc(O)ccc4c3)CC2)CC1 | 1.66 | 1.91 | 1.38 | 4.68 | > 10 |
| Cc1ccc(C(=O)Nc2cc3c4c(c2)C2CCCC2CN4CC2CCCC32)cc1 (stereo not given) | 2.4 | 3.89 | 4.17 | 9.12 | > 10 |
| Oc1ccc2cc(CN3CCC[C@H](CN4CCCC4)C3)ccc2c1 | 1.2 | 1.74 | 2.63 | 2.45 | > 10 |
| CCN(CC)CC(O)COc1c(Br)cc(C(C)(C)c2cc(Br)c(OCC(O)CN(CC)CC)c(Br)c2)cc1Br (stereo not given) | 0.603 | 1.29 | 1.12 | 1.2 | 5.75 |
| CNc1nc(NCCc2ccccc2)nc2ccccc12 | 0.912 | 1.86 | 0.661 | > 10 | > 10 |
| O[C@@]1(CN2CCC(COc3ccc4c(c3)CCC4)CC2)CCCNC1 | 2.14 | 3.47 | 2.51 | 6.31 | > 10 |
| CNc1nc(Nc2ccc3c(c2)OCCO3)nc2ccccc12 | 0.851 | 1.17 | 1.17 | 1.91 | > 10 |
| COc1ccc(-c2csc(-n3cc(C4=CCN(CCO)CC4)cn3)n2)cc1 | 5.13 | 5.5 | > 10 | > 10 | > 10 |
| Cc1cc(OC[C@@H](O)CNC(C)(C)CC(C)(C)C)cc(C)c1Cl | 2.4 | 8.32 | 4.07 | 4.37 | 10.5 |
| CN(C)c1nc(N)cc(-c2cccc3cccnc23)n1 | 2 | 3.8 | 3.47 | > 10 | > 10 |
| Cc1ccc(CC[C@H]2Nc3ccccc3C(c3ccccc3)(c3ccccc3)O2)o1 | 1.86 | 3.47 | 5.37 | 9.33 | > 10 |
| CCNc1ccnc(NCc2nc(-c3cccc(F)c3)c(-c3ccccn3)[nH]2)n1 | 3.16 | 5.75 | > 10 | 8.71 | > 10 |
| Oc1nc(N2CCOC3(CCCC3)C2)ncc1F | 2.57 | 4.27 | > 10 | > 10 | > 10 |
| CCN(CCN(C)C)C(=O)c1cccc(-c2ccc3nccc(N)c3c2)c1 | 1.23 | 1.35 | 1 | 1.74 | > 10 |
| Cc1cc(-c2cc(O)cc(CC[C@H]3CCCCN3)c2)ccn1 | 0.501 | 0.269 | 0.269 | 2.95 | > 10 |
| Cc1ccc(CN2CCN(C[C@@H](O)Cn3c4ccccc4n4c(=O)cc(C)c(C#N)c34)CC2)c(C)c1 | 1.35 | 3.55 | 3.24 | 1.62 | > 10 |
| COc1ccccc1CN1COc2cc3c(cc2C1)OCO3 | 1.58 | 2.09 | 2.29 | 1.91 | > 10 |
| CCOc1cc(-c2cc(-c3ccccc3O)nc3ccc4ccccc4c23)cc(Br)c1O | 1.62 | 2.82 | 2.63 | 3.63 | > 10 |
| Cn1n[n+](CCCCC(Cl)(Cl)Cl)c2ccccc21 | 2.82 | 3.31 | 2.88 | > 10 | > 10 |
| Cc1nnc(CNC(=O)Nc2cccc3c4c(oc23)CCCC4)o1 | 2.14 | 2.19 | 2.63 | 2.88 | > 10 |
| Nc1nc(C2CC(N)C2)cc(N2CCC(Oc3ccccc3Cl)CC2)n1 (stereo not given) | 1.82 | 4.07 | 3.24 | 3.16 | > 10 |
| COc1nc(NC2CCS(=O)(=O)CC2)ncc1F | 0.0479 | 0.0832 | > 10 | > 10 | > 10 |
| Cc1cc(N2CCC3(CCCN3Cc3cc(C#N)n(C)c3C)CC2)c2ccccc2n1 | 1.95 | 3.39 | 1.86 | > 10 | > 10 |
| O=C1NCCCOc2cccc(c2)[C@H]2c3ccc(cc3CCN2C(=O)CCN2CCOCC2)Oc2ccc(O)c1c2 | 2.24 | 8.13 | 4.07 | > 10 | > 10 |
| CN1CCN(C2(CNc3ccnc4ccccc34)CCCC2)CC1 | 0.479 | 0.38 | 0.355 | 0.708 | > 10 |
